In article PMC7115536 (European Journal of Medicinal Chemistry, 2011):

Tests used:
HEL cell cultures = details: human
[1] = cited from earlier work
WT HBV = type: cell-based
[2] = Stability studies at 37 °C in complete culture medium and CEM-SS cell extracts; type: in vitro ADME; details: for t1/2 cell extracts (half-life of decomposition): CEM-SS cell extracts, 0.1 mM

Row | Compound | Minimum cytotoxic concentration (HEL cell cultures) | Stability in all tested media [1] | Potency relative to PMEA (more potent) (WT HBV) | t1/2 cell extracts (half-life of decomposition) [2] | Degradation in complete culture medium after 24 h ([2]; complete culture medium, 24 h)
1 | C[C@H](Cn1cnc2c(N)ncnc21)OCP(=O)(O)O [PMPA, (R)-9-(2-Phosphonomethoxypropyl)-adenine, reference compound] | >200 µM | stable |  |  | 
2 | Nc1ncnc2c1ncn2CCOCP(=O)([O-])[S-].[Na+].[Na+] (stereo not shown) [S-PMEA 3, {[2-(6-Amino-9H-purin-9-yl)ethoxy]methyl}phosphonothioic acid] | >200 µM |  | 1.5–2.5 fold | Stable ^c | 
3 | C[C@H](Cn1cnc2c(N)ncnc21)OCP(=O)([O-])[S-].[Na+].[Na+] (stereo partly drawn) [S-PMPA 4, ({[(2R)-1-(6-Amino-9H-purin-9-yl)propan-2-yl]oxy}methyl)phosphonothioic acid] | >200 µM |  |  | Stable ^c | 20%
4 | Nc1ncnc2c1ncn2CCOCP(=O)(O)O [PMEA, 9-(2-Phosphonomethoxyethyl)adenine, reference compound] | >200 µM | stable |  |  | 
